Counter-ions that a name gives are not always drawn.
Assay: Metabolic stability test using human liver microsome
Type: in vitro ADME
Settings: human liver microsome 0.25 mg protein/mL, 1 μM test compound, 37° C., after 30 minutes' reaction
Protocol: Pharmacological Test Example 3 (Metabolic Stability Test) Metabolic stability of test compounds was examined using human liver microsome. A 100 mM potassium phosphate buffer (pH 7.4) comprising 10 mM [MUT], 1.0 mM NADP^+, 10 units/mL [MUT] DH, 3.0 mM MgCl2 and 0.25 mg protein/mL of human liver microsome was prepared, each 392 μL of which was poured into plural vessels and preincubated at 37° C. for 5 minutes. […] At the initiation time and 30 minutes thereafter of the reaction, 150 μL of each reaction solution was added to 450 μL of ethanol to suspend the reaction, followed by centrifugal separation (12,000 g, 12 minutes, 4° C.). Resulting supernatant was analyzed with LC/MS/MS. Based on the peak area of the test compound in each sample at the initiating time of the reaction as 100%, the test compound's residual ratio in the sample after 30 minutes' reaction was calculated. Residual ratio(%)= [peak area(after 30 minutes' reaction)/ peak area(0 minute's reaction)]×100.

Compound: CC(O)(CO)Cn1c(=O)n(C2CCN(CC3CCCCC34CC4)CC2)c2ccccc21 (single isomer, unassigned) [Example 4, 1-[(2S or 2R)-2,3-dihydroxy-2-methylpropyl]-3-{1-[(4S)-spiro[2.5]oct-4-ylmethyl]piperidin-4-yl}-1,3-dihydro-2H-benzimidazol-2-one(2R,3R)-3-carboxy-2,3-dihydroxypropionic acid salt]
- Residual Ratio: 72%
